The structures appear in SMILES notation.

Consider two compounds from US20260256740A1, “PHARMACEUTICAL COMPOSITION COMPRISING CYCLOHEX-2-ENYLIDENE / 3,3-DIMETHYLINDOLINE COMPOUNDS; METHODS OF TREATING HUMAN DISEASES; AND METHODS OF INDUCING A CALCIUM SENSITIZING EFFECT IN A SUBJECT” (Curadel Surgical Innovations, Inc., priority 2022, published 2026).

The data set has as its system plasma membrane of living cells. Briefly: NIR cellular microscopy of living cells. In kind it is cell-based. The text has this: Without being limited by theory, PanLN and PanLN-forte are believed unlikely to directly bind myofilaments.

For the compound `CC1(C)C(/C=C/C2=C(Oc3ccc(CCC(=O)O)cc3)C(=C/C=C3/N(CCC[N+](C)(C)C)c4ccccc4C3(C)C)/CCC2)=[N+](CCC[N+](C)(C)C)c2ccccc21` [PanLN, 2-((E)-2-((E)-2-(4-(2-carboxyethyl)phenoxy)-3-((E)-2-(3,3-dimethyl-1-(3-(trimethylammonio)propyl)indolin-2-ylidene)ethylidene)cyclohex-1-enyl)vinyl)-3,3-dimethyl-1-(3-(trimethylammonio)propyl)-3H-indolium], the “crossing of the plasma membrane of living cells” value is on record as “does not appear to cross the plasma membrane”. Under `CC1(C)C(/C=C/C2=C(c3ccc(CCC(=O)O)cc3)C(=C/C=C3/N(CCC[N+](C)(C)C)c4ccccc4C3(C)C)/CCC2)=[N+](CCC[N+](C)(C)C)c2ccccc21` [PanLN-fort, 2-((E)-2-((E)-2-(4-(2-carboxyethyl)phenyl)-3-((E)-2-(3,3-dimethyl-1-(3-(trimethylammonio)propyl)indolin-2-ylidene)ethylidene)cyclohex-1-enyl)vinyl)-3,3-dimethyl-1-(3-(trimethylammonio)propyl)-3H-indolium] stands “does not appear to cross the plasma membrane”.
